These results are taken from patent publication US8192962B2, “Processes for detecting toxic substances” (Daikin Industries, Ltd., priority 2001, dated 2012).

The test deals with Transport facilitation protein genes. Description: DNA chip mRNA expression in yeast, transport facilitation protein genes (Table 5). The format is cell-based, Saccharomyces cerevisiae S288C. A digest of the protocol: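 S. cerevisiae S288C grown at 25° C. in YPD to log phase, then exposed 2 h to a toxicant at a growth-inhibiting, non-lethal concentration; untreated cells as control. Poly(A) mRNA reverse-transcribed with Cy3-dUTP or Cy5-dUTP, hybridized >12 h at 65° C. to whole-genome yeast DNA chip; value = fluorescence ratio treated/untreated.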

For the compound `C[S+](C)[O-]` [(15), dimethylsulfoxide], the “The level of expressed mRNA in the presence of chemical substance/The level of expressed mRNA in the absence of chemical substance” value (yeast gene YBR052C) is 0.7; the “The level of expressed mRNA in the presence of chemical substance/The level of expressed mRNA in the absence of chemical substance” value (yeast gene YIL022W) came to 2.9; the “The level of expressed mRNA in the presence of chemical substance/The level of expressed mRNA in the absence of chemical substance” value (yeast gene YKL016C) was determined as 0.7; the “The level of expressed mRNA in the presence of chemical substance/The level of expressed mRNA in the absence of chemical substance” value (yeast gene YLR081W) stood at 0.7; the “The level of expressed mRNA in the presence of chemical substance/The level of expressed mRNA in the absence of chemical substance” value (yeast gene YPR194C) was found to be 0.4.
